According to patent US5089479A, “Adhesion of Mycoplasma pneumoniae and Mycoplasma hominus to sulfatide” (priority 1988, dated 1992):
“Also recorded” adds a separate entry of the source.

What was measured:
[1] = system: M. pneumoniae adhesion to coverslips; assay: Inhibition of nonspecific adhesion of M. pneumoniae to coverslips without cells; type: binding, Mycoplasma pneumoniae strain M129
Method: (§1) Adhesion of [^3 H]-M. pneumoniae to cells on glass covered slips was measured by a modification of a method previously described by Chandler et al., Infect. Immun., op. cit. WiDr human colon adenocarcinoma, ATCC CCL 218 was grown in Eagle's minimal essential medium with 10% fetal calf serum in a 5% CO2 atmosphere at 37° C. The cells were removed with trypsin and plated on 12 mm round glass coverslips in 24-well tissue culture plates and grown for three days. Control coverslips were preincubated in medium without cells. The coverslips were washed in serum-free medium, then incubated in RPMI-BSA for fifteen minutes. The medium was removed and labelled M. pneumoniae suspended in 0.5 ml of RPMI-BSA were added to each well. The plates were incubated on a rocking table for 60 minutes at 37° C. The coverslips were washed by dipping in saline six times, and the bound radioactive bacteria were determined by scintillation counting. For inhibition studies, the inhibitors were added to M. pneumoniae prior to adding the bacteria to the coverslips.
(§2) Adhesion of labelled M. pneumoniae to WiDr cells on glass cover slips was determined as described previously. For inhibition studies, dextran sulfate and 3'-sialyllactose were dissolved in RPMI-BSA and the pH was adjusted to 7.4 with NaOH. The inhibitors were added to wells containing washed cover slips with attached WiDr cells or blank cover slips preincubated in medium or tris-BSA. Labelled M. pneumoniae were added immediately and incubated with slow rocking for sixty minutes at 37° C. After the coverslips were washed by dipping six times in saline, bound M. pneumoniae were determined by scintillation counting in Aquasol. […] After washing to remove the unbound organisms, the bound mycoplasma were determined by scintillation counting. Binding to uncoated wells was 3% of the applied radioactivity.

[2] = system: M. pneumoniae adhesion to WiDr cells; assay: Inhibition of M. pneumoniae adhesion to WiDr human colon adenocarcinoma cell monolayers; type: cell-based
Method: as §1
Because virulent strains of M. pneumoniae adhere to mammalian cells, monolayers of WiDr cells were used to determine if dextran sulfate inhibits adhesion of the organism. [^3 H] -labelled M. pneumoniae was incubated with WiDr cell monolayers attached to coverslips in triplicate with an without dextran sulfate, as shown in Table II. […] In each experiment, 10 μg/ml dextran sulfate inhibited more than 1 μg/ml, but 100 μg/ml dextran sulfate caused no further inhibition. Thus, maximal inhibition was obtained with approximately 10 μg/ml of dextran sulfate. Similar results were obtained with MRC5 lung fibroblasts where in three experiments a mean of 47% of M. pneumoniae adhesion was inhibited by dextran sulfate.
as §2
Adhesion of [^3 H]-M. pneumoniae to WiDr cells growing on 13 mm glass cover slips was determined as described above. Inhibition by dextran sulfate or 3'-sialyllactose at the indicated concentrations was calculated relative to control binding determined in RPMI/BSA without inhibitors. The results are presented as percent inhibition (mean±S.D. n=4 with n=8 for determination of control binding without inhibitor).

[3] = system: M. pneumoniae binding to laminin; assay: Inhibition of M. pneumoniae binding to laminin adsorbed on plastic; design: species or system Mycoplasma pneumoniae strain M129; details: for IC50: oligosaccharide concentrations as sialic acid, read-out: I.D.50, substrate laminin
Method: (§3) Glycoproteins dissolved in 0.01 M sodium phosphate buffer, pH 7.4, containing 150 mM NaCl, 1 mM CaCl2, and 0.01% NaN3 were adsorbed onto plastic polyvinylchloride […] microtiter plates by incubation for 16 hours at 4° C. The unbound proteins were removed, and the wells were filled with tris-BSA and incubated for 30 minutes at room temperature. The wells were rinsed with RPMI1640 containing 25 mM HEPES, pH 7.3, and 1% bovine serum albumin. M. pneumoniae strain M129 labelled with [^3 H]-palmitate were dispersed in RPMI-BSA by passing four times through a 26 gauge needle, and 50 μl of the suspension was applied to the wells. After incubation for 60 minutes at 37° C., the wells were washed five times with saline and the labelled M. pneumoniae bound to the proteins were quantified by scintillation counting in Aquasol.
For inhibition studies, sugars in 25 μl of RPMI-BSA were added to wells coated with 10 μg/ml laminin followed by 25 μl of [^3 H]-M. pneumoniae. Binding was determined to both laminin-coated and uncoated wells in triplicate at each inhibitor concentration and in the absence of inhibitor. In some experiments, the adsorbed proteins were pretreated with neuraminidase. After adsorption of the proteins and incubation in tris-BSA, the wells were rinsed three times with 50 mM sodium acetate, pH 5.5, containing 150 mM NaCl, 5 mM CaCl2, 1 mg/ml bovine serum albumin, and 1 mM phenylmethanesulfonyl fluoride. The wells were incubated with 0.05 units/ml neuraminidase in the same buffer or with buffer without enzyme overnight at 20° C. The wells were rinsed three times with tris-BSA, and M. pneumoniae binding was determined as described above.

[4] = molecular target: M. pneumoniae binding to sulfatide; assay: Inhibition of M. pneumoniae binding to sulfatide adsorbed on plastic; design: species or system Mycoplasma pneumoniae strain M129
Method: (§4) Virulent M. pneumoniae strain M129, passage 5-15, were grown and metabolically labelled with [^3 H]palmitic acid, 12-17 Ci/mole, as described by Chandler et al. in Infect. Immun. 37: 942, 1982. The organisms were passed four times through a 26 gauge needle and suspended to approximately 10^7 cpm/ml of degassed RPMI 1640 medium containing 1% bovine serum albumin and 25 mM HEPES, pH 7.3.
(§5) The binding of M. pneumoniae to purified glycolipids immobilized in microtiter plates was measured as described by Krivan et al. in Proc. Natl. Acad. Sci., op. cit. Purified glycolipids were serially diluted in 25 μl of methanol containing 0.1 μg each of the auxiliary lipids cholesterol and phosphatidylcholine. After the solutions were dried by evaporation, the wells were filled with TBS-BSA, emptied after one hour, rinsed with RPMI-BSA, and incubated with 25 μl of [^3 H]-M. pneumoniae, approximately 10^7 cpm/ml RPMI-BSA. After incubation for two hours at 37° C., unless otherwise stated, the wells were washed five times with saline and bound M. pneumoniae was quantified by scintillation counting in Aquasol. For inhibition studies, various polysaccharides were serially diluted in […] of [^3 H]-M. pneumoniae.
To obtain the results shown in FIG. 4, polysaccharides were serially diluted in 25 μl of RPMI-BSA in microtiter wells previously coated with 1 μg of purified sulfatide. Binding was determined after incubation of two hours at 37° C. with 25 μl of [^3 H]-M. pneumoniae with the indicated concentration of dextran ( .circle. ) or dextran sulfate.

[5] = system: erythrocyte adhesion to M. pneumoniae; details: relative to fetuin; Loomes et al.; cited from earlier work
M. pneumoniae [6] = assay: M. pneumoniae adhesion to immobilized glycoproteins adsorbed on plastic; type: binding, Mycoplasma pneumoniae strain M129; details: for M. pneumoniae adhesion to immobilized glycoprotein (in words): adsorbed on plastic
Method: as §3, with “Aquasol. […]” for “Aquasol.”

M. pneumoniae [7] = assay: Mycoplasma overlay assay: binding of [3H]-M. pneumoniae to glycolipids on thin layer chromatograms; design: species or system Mycoplasma pneumoniae strain M129; details: for binding of M. pneumoniae to glycolipid (in words): thin layer chromatogram overlay
Method: as §4
M. pneumoniae were bound to glycolipids separated on thin-layer chromatograms as described in detail for other bacteria by Krivan et al., Proc. Natl. Acad. Sci. 85: 6157-6161, 1988, and Krivan et al., Arch. Biochem. Biophys. 260:493-496, 1988. Briefly, glycolipids were separated by thin-layer chromatography on aluminum-backed silica gel high-performance plates developed with chlooform:methanol:0.25% CaCl2 in water (60:35:8). After chromatography, the plates were coated with 0.1% polyisobutylmethacrylate, soaked in 0.05 M Tris-HCl, pH 7.6, containing […] sodium chloride, 5 mM CaCl2, 0.2 mM phenylmethane-sulfonyl fluoride, and 1% bovine serum albumin (TBS-BSA) and incubated for three hours at 25° C. with 60 μl/cm^2 of [^3 H]-labelled M. pneumoniae, approximately 10^7 cpm/ml of RPMI-BSA. The plates were gently washed five times in 0.01 M sodium phosphate, pH 7.2, containing 0.15 M sodium chloride (PBS) to remove unbound organisms, dried, and exposed for 24 hours to Ultrofilm ^3 H (2208-190) high speed film.
To obtain the results shown in FIG. 1, glycolipids were chromatographed on aluminum-backed silica gel HPTLC plates developed in chloroform/methanol/0.25% CaCl2 in water, 60:35:8. The plates were coated with plastic, soaked in Tris-BSA, and incubated for three hours at 25° C. with [^3 H]-palmitate-labelled M. pneumoniae suspended in RPMI 1640 containing 1% BSA and 25 mM HEPES, pH 7.3, as described above (Panel A), or sprayed with orcinol reagent to identify glycolipids (Panel B). Lane a, acidic glycolipid standards sulfatide (0.5 μg), GM3 (2 μg), GM2 (2 μg), GD1a (2 μg), GD1b (2 μg), GT1b (2 μg); lane b, neutral standards galactosyl ceramide (4 μg), lactosylceramide (4 μg), globotriaosylceramide (2 μg), c2(0.5 μg). and c3 (o.1 μg); lane d, seminolipid (2 μg); lane e, cholesterol 3 -sulfate (2 μg); lane f, human trachea acidic glycolipids from 100 mg wet weight […]; lane h, α2-3sialylparagloboside (2 μg); lane 1, I-active monosialylganglioside from bovine erythrocytes (2 μg).

M. pneumoniae [8] = assay: Solid-phase binding of [3H]-M. pneumoniae to purified glycolipids immobilized in microtiter plates; design: species or system Mycoplasma pneumoniae strain M129
Method: as §4, §5
To obtain the results shown in FIG. 2, lipids in […] each of the auxiliary lipids cholesterol and phosphatidylcholine were evaporated in flat bottom wells of polyvinylchloride microtiter plates. The wells were blocked with 1% albumin for one hour, washed twice with RPMI-BSA, and incubated at 25° C. with 25 μl of [^3 H]-M. pneumoniae, approximately […]. After two hours, the wells were washed five times with saline, cut from the plate, and bound radioactivity was quantified in a scintillation counter. In control experiments, organisms were incubated with auxiliary lipids only to correct for nonspecific binding, typically <1% of the total radioactivity added. M. pneumoniae binding was determined in RPMI-BSA for sulfatide ( .circle. ), lactosylceramide, paragloboside, and cholesterol sulfate, ceramide trihexoside, globoside, GM1, GM2, or GM3 ( .largecircle.).
Binding of [^3 H]-M. pneumoniae was determined in RPMI-BSA for two hours at 4° C., 25° C. ( .circle. ), 37° C., and at 37° C. in BSA without RPMI (Δ).

## CC(=O)NC1C(O)CC(OC2C(O)C(CO)OC(OC3C(CO)OC(O)C(O)C3O)C2O)(C(=O)O)OC1C(O)C(O)CO (centres unmarked) [3'-sialyllactose]
[1]; coverslips preincubated in medium containing fetal calf serum
  inhibition of non-specific adhesion to coverslips (in words): specifically inhibited
[1]; coverslips preincubated in tris-BSA
  inhibition of nonspecific binding to coverslips (in words): does not inhibit nonspecific binding
[2]
  inhibition of adhesion to WiDr cells (in words): partially inhibit
[2]; listed as 3'-Sialyllactose
  inhibition of adhesion to WiDr cells (in words): The inhibition is dose dependent
[2]; WiDr, more than ten-fold higher than ID50 for binding to laminin, 60 min
  control adhesion remaining: 40%
[3]; laminin adsorbed on plastic
  inhibition of binding to laminin (in words): inhibited by 3'-sialyllactose at comparable concentrations; also recorded: inhibit attachment of M. pneumoniae to laminin
[3]
  IC50: 300 µM
[4]; oligosaccharide concentrations as sialic acid, read-out: I.D.50, substrate sulfatide
  IC50: > 5000 µM
[4]; sulfatide adsorbed on plastic
  inhibition of binding to sulfatide (in words): Neither laminin nor 3'-sialyllactose inhibits M. pneumoniae attachment to sulfatide; also recorded: does not inhibit binding to sulfatide

## CC(=O)NC1C(O)CC(OCC2OC(OC3C(CO)OC(O)C(O)C3O)C(O)C(O)C2O)(C(=O)O)OC1C(O)C(O)CO (centres unmarked) [6'-sialyllactose]
[3]; 5 mM inhibitor, laminin substrate, 60 min
  Binding % of control: 54 % of control
[3]; compared with 3'-sialyllactose or other fetuin oligosaccharide fractions
  relative inhibitory activity, binding to laminin (in words): at least ten-fold less active
[3]
  IC50: > 5000 µM

## Human α1 -acid glycoprotein: glycoprotein
[5]
  inhibition of erythrocyte adhesion to M. pneumoniae (in words): inhibit erythrocyte adhesion to M. pneumoniae better than fetuin
M. pneumoniae [6]
  M. pneumoniae adhesion to immobilized glycoprotein (in words): neither protein binds M. pneumoniae well
M. pneumoniae [6]; listed as alpha-1-acid glycoprotein
  M. pneumoniae adhesion to immobilized glycoprotein (in words): weakly active
M. pneumoniae [6]; relative to fetuin = 1.0, from amount for half maximal binding, mean of 2 or 3 experiments
  Relative binding activity: 0.03

## galactosyl ceramide-I^3 -sulfate [Sulfatide]
M. pneumoniae [7]; Table I, class by amount of lipid bound
  Binding (ability to bind M. pneumoniae): +++ (positive binding to less than 0.5 μg)
M. pneumoniae [7]; listed as galactosyl ceramide I^3 -sulfate
  binding of M. pneumoniae to glycolipid (in words): does not discriminate between galactosyl ceramide I^3 -sulfate and its unnatural 6-sulfate isomer
M. pneumoniae [7]; listed as sulfatide
  binding of M. pneumoniae to glycolipid (in words): bound strongly; also recorded: bound avidly
M. pneumoniae [7]; thin layer chromatogram, lane C3
  amount of glycolipid detected by M. pneumoniae overlay: 100 ng
M. pneumoniae [8]; 4° C., RPMI-BSA
  binding activity at 4° C.: almost completely abolished; also recorded: minimal
M. pneumoniae [8]; 25° C., RPMI-BSA
  binding activity at 25° C. (relative to 37° C.): about five times lower
M. pneumoniae [8]; 37° C., RPMI-BSA
  amount of sulfatide required for half-maximum binding: about 0.25 μg
M. pneumoniae [8]; 37° C., Tris-BSA without RPMI
  binding in nutrient-deficient medium: almost completely abolished; also recorded: bound poorly
M. pneumoniae [8]; RPMI medium, 37° C. / physiological temperatures
  binding in RPMI medium at 37° C.: maximal
M. pneumoniae [8]; microtiter plate, up to 10 μg per well
  binding of M. pneumoniae to immobilized lipid (in words): good dose response; also recorded: bind to sulfatide adsorbed on plastic; also recorded: sensitive and dose-dependent
